Read-outs that look alike come from different tables or passages of the source.
Tests used:
SDMA/HCT116-MTAPwt = experiment: In-cell arginine symmetric dimethylation inhibition (In-cell western, ICW), wild-type cells; type: cell-based; conditions: Homo sapiens, HCT-116, 96 hours
Method: (§1) 60 nL of different concentrations of compounds were added to each well using an Echo, and incubated at 37°C, 5% CO2 for 96 hours.
(§2) Next, 50 µL of 4% paraformaldehyde solution was added to each well and incubated at room temperature for 20 minutes to fix the cells. The solution in the wells was removed, and each well was rinsed four times with PBS solution containing 0.1% Tween 20 (PBST). To each well was then added 30 µL of ice-cold methanol. After standing at -20°C for 10 minutes, the methanol was removed and the wells washed four times with PBST. 30 µL of Odyssey blocking solution containing 0.5% Tween 20 was added to each well and shaken for 2 hours at room temperature. The blocking solution was removed and 30 µL of primary antibody (Symmetric Di-Methyl Arginine Motif [sdma-RG] MultiMab™ Rabbit mAb mix) diluted at 1:500 in Odyssey blocking solution containing 0.5% Tween 20 was added to each well. The plates were incubated overnight at 4°C, before removing the primary antibody and rinsing each well four times with PBST, 5 minutes per rinse. Secondary antibody (goat anti-rabbit IRDye 800CW, 1:800) and nuclear stain (DRAQ5, 1:10000) diluted in Odyssey blocking solution containing 0.5% Tween 20 were then added to each well before incubating at room temperature for 2 hours in the dark. The secondary antibody was removed, and the wells rinsed four times with PBST.
(§3) The sdme-RG and DRAQ5 signals were scanned at 800 nm and 700 nm respectively on a Li-Cor Odyssey instrument and the signal values recorded. The sdme-RG/DRAQ5 ratio was used to calculate the percentage inhibition of arginine symmetric dimethylation (SDMA), and the IC50 value calculated using GraphPad Prism software.

HCT116-MTAPwt = experiment: 2D antiproliferative assay (CTG cell viability), wild-type cells; type: cell-based; conditions: Homo sapiens, HCT-116, 7-10 days
Method: (§4) HCT116 wild-type and MTAP-deficient cells were cultured in McCoy's 5A medium containing 10% FBS and 1% penicillin-streptomycin, and cultured in a 37°C, 5% CO2 constant temperature incubator. 40 µL of cell suspension was introduced into each well of a 384-well microplate. 40 nL of different concentrations of test compounds were added to each well using an Echo, before culturing in a 37°C, 5% CO2 constant temperature incubator for 7-10 days. 40 µL of CTG solution (Promega, Cat No. G7573) was added to each well and incubated in a 37°C, 5% CO2 constant temperature incubator for 30 minutes in the dark.

HCT116-MTAPdel = experiment: 2D antiproliferative assay (CTG cell viability), MTAP-deficient cells; type: cell-based; conditions: for IC50: Homo sapiens, HCT-116, HCT116 MTAP-deficient cells, 7-10 days, CTG, read-out: HCT116-MTAPdel/IC50/nM; for HCT116WT IMTAPdel selectivity: ratio IC50 wild type / MTAPdel, antiproliferation
Method: as §4

SDMA/HCT116-MTAPdel = experiment: In-cell arginine symmetric dimethylation inhibition (In-cell western, ICW), MTAP-deficient cells; type: cell-based; conditions: for IC50: Homo sapiens, HCT-116, HCT116 MTAP-deficient cells, 96 hours; for Selectivity wt/MTAPdel: ratio SDMA IC50 wt / MTAPdel
Method: as §1, §2, §3

[1] = Liver microsomal stability assay, human; conditions: liver microsomes
Method: (§7) The compounds to be tested were co-incubated with liver microsomes of different species with or without the addition of NADPH. The final concentration of the test compounds in the test system was 1 µM, the final concentration of NADPH was 1 mM, and the final concentration of liver microsomes was 0.5 mg/mL.

[2] = Membrane permeability: Caco-2 assay; type: in vitro ADME; conditions: human; for efflux ratio: Caco-2, Efflux Ratio = Papp(B-A)/Papp(A-B); for Papp A→B / Papp B→A: Caco-2, apical pH 6.5, basolateral pH 7.4
Method: The membrane permeability of the molecules of the invention was evaluated. […] Efflux Ratio = Papp(B−A) /Papp(A−B) [formula]

[3] = Mouse pharmacokinetics testing; type: in vivo, CD1 female mice
Method: CD1 female mice were used as test animals and administered the compounds orally/intravenously (oral dosage was 10 mg/kg and intravenous dosage was 2 mg/kg). Test protocol: Each oral and intravenous group consisted of three mice. […] Plasma drug concentrations after oral and intravenous administration were determined by LC/MS/MS, and the collected data analyzed using AB Sciex QTRAP 6500 software.

[4] = Liver microsomal stability assay, mouse; type: in vitro ADME; conditions: mouse liver microsomes 0.5 mg/mL, compound 1 µM, NADPH 1 mM, 60 minute
Method: as §7

in vitro = conditions: dog, MDCK-MDR1, pH 7.4
Method: (§5) The membrane permeability of the molecules of the present invention was evaluated to predict their permeability to the brain.
(§6) The specific procedure was: 1. MDCK-MDR1 cells were pre-cultured at a density of 1.56*10^6 cells/mL in a 96-well plate at 37°C for 7 days. 2. The MDCKII-MDR1 plate was taken out of the incubator, rinsed twice with pre-warmed HBSS (10 mM HEPES, pH 7.4), and then incubated at 37°C for 30 minutes. 3. The stock solution of the compound to be tested was diluted with DMSO to obtain a 0.2 mM solution, and then diluted with HBSS (10 mM HEPES, pH 7.4) to obtain a 1 µM working solution. A blank control group was also diluted with DMSO to obtain a 0.2 mM solution, and then diluted with HBSS (10 mM HEPES, pH 7.4) to obtain a 1 µM working solution. The final concentration of DMSO in the culture system was 0.5%. 4. The transport rate of the drug in the apical to basolateral direction was determined: 125 µL of the 1 µM test compound solution was added to a Transwell insert (top compartment), before immediately transferring a 50 µL sample (D0 sample) from the top comparment to a new 96-well plate. The receiving plate wells (basolateral compartment) were filled with 235 µL HBSS (10 mM HEPES, pH 7.4) and incubated at 37°C for 2 hours. 5. Upon completion of the incubation, 50 µL samples were transferred from the donor and acceptor sides to the wells of a new 96-well plate, before adding 4 volumes of cold acetonitrile containing an appropriate internal standard (IS). Prior to LC-MS/MS analysis, 100 µL of the supernatant was taken and mixed with an appropriate volume of ultrapure water. Papp = (VA×[drug]acceptor)/(Area×Time×[drug]initial,donor) [formula] where VA is the volume of the receptor pores (unit:mL), Area is the surface area of the membrane (0.143 cm^2 for a Transwell-96 well permeable support), and time is the total transport time in seconds. Efflux Ratio = Papp(B−A) /Papp(A−B) [formula]

MDR1 (P-gp) = experiment: in vitro; conditions: dog, MDCK-MDR1, pH 7.4
Method: as §5, §6

[5] = female, CD1, mouse, in vivo, iv, 2 mg/kg
[6] = female, CD1, mouse, in vivo, po, 10 mg/kg

| Structure (SMILES) | IC50 (SDMA/HCT116-MTAPwt) | IC50 (HCT116-MTAPwt) | IC50 (HCT116-MTAPdel) | HCT116WT IMTAPdel selectivity (HCT116-MTAPdel) | IC50 (SDMA/HCT116-MTAPdel) | Selectivity wt/MTAPdel (SDMA/HCT116-MTAPdel) | CLint scaled at 1 µM [1] | efflux ratio [2] | Papp A→B [2] | Papp B→A [2] | also measured |
| --- | --- | --- | --- | --- | --- | --- | --- | --- | --- | --- | --- |
| Cc1cc(NC(=O)C(=O)N2C[C@@H](C)CC[C@@H]2c2ccc3scnc3c2)cnc1N [TNG908, reference compound] | 2210 nM | 1190 nM | 43 nM | 27 | 2.6 nM | 850 | – | – | – | – | – |
| CN(C(=O)C(=O)Nc1cnc(N)c2c1cnn2C)[C@@H]1COCc2nc(C(F)(F)F)ccc21 [Compound P9a] | 2450 nM | 4000 nM | 12 nM | 333 | 0.9 nM | 2722 | 2.1 mL/min/kg | 2.9 | 8.65 ×10⁻⁶ cm/s | 25.1 ×10⁻⁶ cm/s | F ([3]; female, CD1, mouse, in vivo): 77%; AUC(0-t) [3, 5]: 3990 ng·h/mL; C0 [3, 5]: 5650 ng/mL; clearance [3, 5]: 8.3 mL/min/kg; half-life [3, 5]: 72 min; AUC(0-t) [3, 6]: 15400 ng·h/mL; Cmax [3, 6]: 10800 ng/mL; Tmax [3, 6]: 15 min; half-life [3, 6]: 66 min; CLint scaled at 1 µM [4]: 10 mL/min/kg |
| CN(C(=O)C(=O)Nc1cnc(N)c2c1cnn2C)C1COc2cc(C(F)(F)F)ccc21 (centres unmarked) [Compound P2] | – | 2680 nM | 32 nM | 84 | – | – | 13 mL/min/kg | 1.5 | 13.5 ×10⁻⁶ cm/s | 20.5 ×10⁻⁶ cm/s | – |
| C[C@H]1CC[C@H](c2ccc3scnc3c2)N(C(=O)C(=O)Nc2cnc(N)c3c2cnn3C)C1 [Compound P3b] | 578 nM | 275 nM | 2 nM | – | 0.6 nM | – | – | – | – | – | F ([3]; PO (10 mg/kg) vs IV (2 mg/kg), CD1 female mice): 31%; AUC(0-t) ([3]; mouse, IV (2 mg/kg), CD1 female mice, plasma, read-out: AUC0-24): 383 ng·h/mL; C0 ([3]; mouse, IV (2 mg/kg), CD1 female mice, plasma, read-out: C0): 1650 ng/mL; clearance ([3]; mouse, IV (2 mg/kg), CD1 female mice, plasma, read-out: Cl): 86.6 mL/min/kg; half-life ([3]; mouse, IV (2 mg/kg), CD1 female mice, plasma, read-out: T1/2 (converted)): 19.2 min; AUC(0-t) ([3]; mouse, PO (10 mg/kg), CD1 female mice, plasma, read-out: AUC0-24): 586 ng·h/mL; Cmax ([3]; mouse, PO (10 mg/kg), CD1 female mice, plasma, read-out: Cmax): 883 ng/mL; half-life ([3]; mouse, PO (10 mg/kg), CD1 female mice, plasma, read-out: T1/2 (converted)): 66 min; Tmax ([3]; mouse, PO (10 mg/kg), CD1 female mice, plasma, read-out: Tmax): 15 min |
| Cc1cc2cc(C(=O)N(Cc3ccc(C(F)(F)F)cn3)[C@H](C)c3ncccn3)ccc2nc1N [AM9747, reference compound] | 332 nM | 237 nM | 7 nM | – | 0.6 nM | – | – | – | – | – | – |
| CN(C(=O)C(=O)Nc1cnc(N)c2c1cnn2C)C1COc2cc(S(=O)(=O)C(F)(F)F)ccc21 (centres unmarked) [Compound P33] | – | 1460 nM | 9 nM | 162 | – | – | – | – | – | – | Papp A→B (in vitro): 6.86 ×10⁻⁶ cm/s; Papp B→A (in vitro): 28.8 ×10⁻⁶ cm/s; efflux ratio (MDR1 (P-gp)): 4.2 |
